Results taken from patent US8754226B2, “Piperidinyl-substituted lactams as GPR119 modulators” (Array BioPharma Inc., priority 2010, dated 2014).

System: modified version of the GPR119 receptor (94% identity to human receptor)
Test: cAMP production assay (LANCE cAMP kit, TR-FRET) in HEK-293 cells
Format: cell-based
Settings: for cAMP production in HEK-293 cells: HEK-293 cells stably expressing modified GPR119, test compounds 0.2 nM to 10 μM, one-hour incubation at ambient temperature; for Fold over baseline: increase in cAMP relative to basal levels, agonist activity if 1.5-fold or greater
Procedure: The assay utilized HEK-293 cells that stably express a modified version of the GPR119 receptor (94% identity to human receptor), under the control of a CMV promoter containing a tet-on element for tetracycline-inducible expression. GPR119 agonist-induced cyclic AMP (cAMP) production was measured in this cell line using the LANCE cAMP kit (Perkin Elmer, Waltham, Mass.). To generate a working stock of cells for the assay, cells were treated overnight with 1 μg/mL doxycycline at 37° C. in the presence of 5% CO2 to induce receptor expression. Cells were then harvested by enzymatic dissociation with 0.05% trypsin, resuspended in freezing medium (DMEM growth medium with 10% each of fetal bovine serum and DMSO), aliquoted and frozen at −80° C. On the day of the assay, frozen cells were thawed, washed 1× in PBS and resuspended in Hank's buffered salt solution (HBSS) containing 5 mM HEPES, 0.1% BSA and Alexa Fluor 647-conjugated anti-cAMP antibody (diluted 1:100). The cell suspension was then transferred to a Proxiplate Plus white 384-well assay plate (Perkin-Elmer) at 2000 cells/well. Test compounds at final concentrations ranging from 0.2 nM to 10 μM were added to the assay plate, followed by a one-hour incubation at ambient temperature (volume=10 μL/well). DMSO concentration was held constant at 0.5%. After incubation with test compounds, 10 μL of a detergent buffer containing a biotinylated cAMP/Europium-conjugated streptavidin complex (Europium-labeled cAMP tracer) were added to each well on the assay plate, followed by a 2-hour incubation at ambient temperature. During this incubation cAMP released from lysed cells competes with the Europium-labeled cAMP tracer for binding to the Alexa Fluor 647-conjugated antibody. […] Cellular cAMP levels were then determined by interpolation of raw signal data using a cAMP standard curve. Compounds were determined to have agonist activity if they stimulated a 1.5-fold or greater increase in cAMP relative to basal levels.

## Cn1nccc1-c1cnc(N2CCC(N3CC[C@H](Nc4ccc(S(C)(=O)=O)cc4F)C3=O)CC2)nc1 [Example 32, (S)-3-(2-fluoro-4-(methylsulfonyl)phenylamino)-1-(1-(5-(1-methyl-1H-pyrazol-5-yl)pyrimidin-2-yl)piperidin-4-yl)pyrrolidin-2-one]
  cAMP production in HEK-293 cells: 10.9 nmol
  Fold over baseline: 2.4

## CS(=O)(=O)c1cc(F)c(N[C@H]2CCCN(C3CCN(c4ncc(C#N)cn4)CC3)C2=O)cc1F [Example 51, (S)-2-(3-(2,5-difluoro-4-(methylsulfonyl)phenylamino)-2-oxo-[1,4′-bipiperidin]-1′-yl)pyrimidine-5-carbonitrile]
  cAMP production in HEK-293 cells: 8.8 nmol
  Fold over baseline: 2.7

## CS(=O)(=O)c1cc(F)c(O[C@H]2CCN(C3CCN(c4ncc(-c5ncccn5)cn4)CC3)C2=O)cc1F [Example 95, (S)-1-(1-(2,5′-bipyrimidin-2′-yl)piperidin-4-yl)-3-(2,5-difluoro-4-(methylsulfonyl)phenoxy)pyrrolidin-2-one]
  cAMP production in HEK-293 cells: 9.0 nmol
  Fold over baseline: 2.3

## CCc1cnc(N2CCC(N3CCC(Oc4ccc(-c5nnn(C)n5)cc4)C3=O)CC2)nc1 (stereo not drawn) [Example 68, 1-(1-(5-ethylpyrimidin-2-yl)piperidin-4-yl)-3-(4-(2-methyl-2H-tetrazol-5-yl)phenoxy)pyrrolidin-2-one]
  cAMP production in HEK-293 cells: 8.8 nmol
  Fold over baseline: 1.9

## CS(=O)(=O)c1ccc(N[C@H]2CCN(C3CCN(c4cnccn4)CC3)C2=O)c(F)c1 [Example 106, (S)-3-(2-fluoro-4-(methylsulfonyl)phenyl-amino)-1-(1-(pyrazin-2-yl)piperidin-4-yl)pyrrolidin-2-one]
  cAMP production in HEK-293 cells: 17.8 nmol
  Fold over baseline: 3.0

## CS(=O)(=O)c1ccc(N[C@H]2CCCN(C3CCN(c4cnc(Cl)cn4)CC3)C2=O)c(F)c1 [Example 44, (S)-1′-(5-chloropyrazin-2-yl)-3-(2-fluoro-4-(methylsulfonyl)phenylamino)-[1,4′-bipiperidin]-2-one]
  cAMP production in HEK-293 cells: 20.4 nmol
  Fold over baseline: 4.1

## CS(=O)(=O)c1cc(F)c(N[C@H]2CCCN(C3CCN(c4ccc(C(F)(F)F)cn4)CC3)C2=O)cc1F [Example 54, (S)-3-(2,5-difluoro-4-(methylsulfonyl)phen-ylamino)-1′-(5-(trifluoromethyl)pyridin-2-yl)-[1,4′-bipiperidin]-2-one]
  cAMP production in HEK-293 cells: 7.3 nmol
  Fold over baseline: 2.3

## CCc1cnc(N2CCC(N3CC[C@H](Nc4ccc(S(C)(=O)=O)cc4F)C3=O)CC2)nc1 [Example 19, (S)-1-(1-(5-ethylpyrimidin-2-yl)piperidin-4-yl)-3-(2-fluoro-4 (methylsulfonyl)phenylamino) pyrrolidin-2-one]
  cAMP production in HEK-293 cells: 9.9 nmol
  Fold over baseline: 2.1

## O=C1[C@@H](Nc2ncc(C(F)(F)F)cc2Cl)CCN1C1CCN(c2cnc(Cl)cn2)CC1 [Example 22, (S)-3-(3-chloro-5-(trifluoromethyl)pyridin-2-ylamino)-1-(1-(5-chloropyrazin-2-yl)piperidin-4-yl)pyrrolidin-2-one]
  cAMP production in HEK-293 cells: 32.7 nmol
  Fold over baseline: 5.6

## CS(=O)(=O)c1cc(F)c(N[C@H]2CCCN(C3CCN(c4cnc(Cl)cn4)CC3)C2=O)c(F)c1 [Example 65, (S)-1′-(5-chloropyrazin-2-yl)-3-(2,6-difluoro-4-(methylsulfonyl)phenylamino)-[1,4′-bipiperidin]-2-one]
  cAMP production in HEK-293 cells: 21.0 nmol
  Fold over baseline: 3.4

## CS(=O)(=O)c1ccc(N[C@H]2CCN(C3CCN(c4ncc(C(F)(F)F)cc4Cl)CC3)C2=O)cn1 [Example 119, (S)-1-(1-(3-chloro-5-(trifluoromethyl)pyridin-2-yl)piperidin-4-yl)-3-(6-(methylsulfonyl)pyridin-3-ylamino)pyrrolidin-2-one]
  cAMP production in HEK-293 cells: 16.3 nmol
  Fold over baseline: 3.3

## O=C(c1ccc(O[C@H]2CCN(C3CCN(c4ncc(Cl)cc4F)CC3)C2=O)c(F)c1)N1CC[C@@H](O)C1 [Example 155, (S)-1-(1-(5-chloro-3-fluoropyridin-2-yl)piperidin-4-yl)-3-(2-fluoro-4-((R)-3-hydroxypyrrolidine-1-carbonyl)phenoxy)pyrrolidin-2-one]
  cAMP production in HEK-293 cells: 13.4 nmol
  Fold over baseline: 2.5

## CS(=O)(=O)c1ccc(N[C@H]2CCN(C3CCN(c4ncc(Cl)cc4F)CC3)C2=O)cn1 [Example 130, (S)-1-(1-(5-chloro-3-fluoropyridin-2-yl)piperidin-4-yl)-3-(6-(methylsulfonyl)pyridin-3-ylamino)pyrrolidin-2-one]
  cAMP production in HEK-293 cells: 26.8 nmol
  Fold over baseline: 3.5

## CS(=O)(=O)c1ccc(N[C@H]2CCN(C3CCN(c4ccc(C#N)cn4)CC3)C2=O)c(F)c1 [Example 112, (S)-6-(4-(3-(2-fluoro-4-(methylsulfonyl)phenyl-amino)-2-oxopyrrolidin-1-yl)piperidin-1-yl)nicotinonitrile]
  cAMP production in HEK-293 cells: 22.5 nmol
  Fold over baseline: 1.7

## CCc1cnc(N2CCC(N3CC[C@H](Nc4cc(F)c(S(C)(=O)=O)cc4F)C3=O)CC2)nc1 [Example 5, (S)-3-(2,5-difluoro-4-(methyl-sulfonyl)phenylamino)-1-(1-(5-ethylpyrimidin-2-yl)piperidin-4-yl)pyrrolidin-2-one]
  cAMP production in HEK-293 cells: 12.3 nmol
  Fold over baseline: 2.2

## CC1(C)CN(c2cnc(Cl)cn2)CCC1N1CC[C@H](Nc2ccc(S(C)(=O)=O)cc2F)C1=O (stereo partly drawn) [Example 162, (3S)-1-(1-(5-chloropyrazin-2-yl)-3,3-dimethylpiperidin-4-yl)-3-(2-fluoro-4-(methylsulfonyl)phenylamino)pyrrolidin-2-one]
  cAMP production in HEK-293 cells: 16.2 nmol
  Fold over baseline: 2.8

## CS(=O)(=O)c1ccc(N[C@H]2CCN(C3CCN(c4cnc(C(F)(F)F)nc4)CC3)C2=O)c(F)c1 [Example 158, (S)-3-(2-fluoro-4-(methylsulfonyl)phenylamino)-1-(1-(2-(trifluoromethyl)pyrimidin-5-yl)piperidin-4-yl)pyrrolidin-2-one]
  cAMP production in HEK-293 cells: 12.5 nmol
  Fold over baseline: 3.2

## N#Cc1ccc(N[C@H]2CCN(C3CCN(c4ncc(C(F)(F)F)cc4Cl)CC3)C2=O)nn1 [Example 150, (S)-6-(1-(1-(3-chloro-5-(trifluoromethyl)pyridin-2-yl)piperidin-4-yl)-2-oxopyrrolidin-3-ylamino)pyridazine-3-carbonitrile]
  cAMP production in HEK-293 cells: 17.1 nmol
  Fold over baseline: 3.4

## CCc1cnc(N2CCC(N3CCC[C@H](Nc4ccc(S(C)(=O)=O)c(Cl)c4)C3=O)CC2)nc1 [Example 56, (S)-3-(3-chloro-4-(methylsulfonyl)phen-ylamino)-1′-(5-ethylpyrimidin-2-yl)-[1,4′-bipiperidin]-2-one]
  cAMP production in HEK-293 cells: 18.0 nmol
  Fold over baseline: 2.4

## CCc1cnc(N2CCC(N3CCC(Oc4ccc(-n5cnnn5)nc4)C3=O)CC2)nc1 (stereo not drawn) [Example 66, 3-(6-(1H-tetrazol-1-yl)pyridin-3-yloxy)-1-(1-(5-ethylpyrimidin-2-yl)piperidin-4-yl)pyrrolidin-2-one]
  cAMP production in HEK-293 cells: 4.9 nmol
  Fold over baseline: 1.6

## CS(=O)(=O)c1cc(F)c(N[C@H]2CCCCN(C3CCN(c4cnccn4)CC3)C2=O)cc1F.Cl [Example 83, (S)-3-(2,5-difluoro-4-(methylsulfonyl)phenylamino)-1-(1-(pyrazin-2-yl)piperidin-4-yl)azepan-2-one hydrochloride]
  cAMP production in HEK-293 cells: 13.0 nmol
  Fold over baseline: 2.9

## CS(=O)(=O)c1cc(F)c(N[C@H]2CCN(C3CCN(c4cnc(Cl)cn4)CC3)C2=O)c(F)c1 [Example 20, (S)-1-(1-(5-chloropyrazin-2-yl)piperidin-4-yl)-3-(2,6-difluoro-4-(methylsulfonyl)phenylamino) pyrrolidin-2-one]
  cAMP production in HEK-293 cells: 24.4 nmol
  Fold over baseline: 6.5

## CS(=O)(=O)c1ccc(N[C@H]2CCN(C3CCN(c4ncc(C(F)(F)F)cc4Cl)CC3)C2=O)c(F)c1 [Example 102, (S)-1-(1-(3-chloro-5-(trifluoromethyl)pyridin-2-yl)piperidin-4-yl)-3-(2-fluoro-4-(methylsulfonyl)phenylamino) pyrrolidin-2-one]
  cAMP production in HEK-293 cells: 15.5 nmol
  Fold over baseline: 3.4

## CS(=O)(=O)c1cc(F)c(N[C@H]2CCN(C3CCN(c4ccc(C(F)(F)F)cn4)CC3)C2=O)c(F)c1 [Example 105, (S)-3-(2,6-difluoro-4-(methylsulfonyl)phenyl-amino)-1-(1-(5-(trifluoromethyl)pyridin-2-yl)piperidin-4-yl)pyrrolidin-2-one]
  cAMP production in HEK-293 cells: 11.5 nmol
  Fold over baseline: 1.6
